Reference: patent US12398130B2, “Acid addition salts of piperazine derivatives” (Asceneuron SA, priority 2016, dated 2025)
Structures can show the parent of a compound that is named as a salt.

Assay: Visual aqueous solubility
Assay type: physicochemical
Conditions: water added in portions to ~10 mg, assessed visually after brief equilibration
Method: The salts and free base (˜10 mg) were weighed into glass vials and water was added in 0.1 mL portions up to 3 mL and 1 mL portions thereafter. Solubility was assessed visually following a brief period of equilibration.

SMILES | Visual aqueous solubility [µg/mL] | Visual aqueous solubility (listed as Free base) [µg/mL]
CC(=O)Nc1nnc(N2CCN([C@@H](C)c3ccc4c(c3)OCO4)CC2)s1 [Maleate salt, (S)—N-(5-(4-(1-(benzo[d][1,3]dioxol-5-yl)ethyl)piperazin-1-yl)-1,3,4-thiadiazol-2-yl)acetamide] | ~4500 | –
CC(=O)Nc1nnc(N2CCN([C@@H](C)c3ccc4c(c3)OCO4)CC2)s1 [L-Tartrate salt, (S)—N-(5-(4-(1-(benzo[d][1,3]dioxol-5-yl)ethyl)piperazin-1-yl)-1,3,4-thiadiazol-2-yl)acetamide] | ~20000 | –
CC(=O)Nc1nnc(N2CCN([C@@H](C)c3ccc4c(c3)OCO4)CC2)s1 [Hydrochloride salt, (S)—N-(5-(4-(1-(benzo[d][1,3]dioxol-5-yl)ethyl)piperazin-1-yl)-1,3,4-thiadiazol-2-yl)acetamide] | ~4500 | –
CC(=O)Nc1nnc(N2CCN([C@@H](C)c3ccc4c(c3)OCO4)CC2)s1 [Example 69, (S)—N-(5-(4-(1-(benzo[d][1,3]dioxol-5-yl)ethyl)piperazin-1-yl)-1,3,4-thiadiazol-2-yl)acetamide] | – | <500
